These are literature values, as cited in patent publication US11766458B2, “Method and a dietary composition on regulation, treatment, and prevention of obesity” (priority 2021, dated 2023).

The structures appear in SMILES notation.

The conditions of series [1]: Nutrition & Diabetes volume 11, Article number: 3, 2021.

`N=C(N)NCCC[C@H](N)C(=O)O` [L-arginine]: the “Energy intake (food diary)” value (after L-arginine treatment) is listed as “less energy intake”. Also, the “Release of plasma PYY” value (healthy people, oral 17.1 mmol, after unlimited meals, p<0.001) is recorded as “stimulated”. Further, the “Release of plasma GLP-1” value (healthy people, oral 17.1 mmol, after unlimited meals, p<0.05) is on record as “stimulated”. Moreover, in the series on DIO C57BL/6 mice (oral 1 g/kg 15 minutes before OGTT), the GLP-1 secretion result is on record as “induces GLP-1 secretion”. Further, in the series on DIO C57BL/6 mice (oral 1 g/kg 15 minutes before OGTT (2 g glucose/kg bw)), the Glucose resistance result was “improves glucose resistance”.

For the compound `N[C@@H](Cc1c[nH]c2ccccc12)C(=O)O` [tryptophan], the Gastric emptying entry in series [1] was “delays the gastric emptying”.
